# Source: ChEMBL document CHEMBL1201862, “PubChem BioAssay data set” (2004)
#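 Briefly, cells in 96-well plates were exposed to five compound concentrations for 48 h, and endpoints were estimated by linear interpolation. GI50 = concentration required for 50% inhibition of growth.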 Activity calls are given as the source filed them. Cut-off read from the data, not from the text of the source: active = GI50 up to about 1.1 µM and inactive = higher.
# Tests used:
# Test in all cases: inhibition of tumour cell growth, NCI panel, 48 h
# SK-MEL-2 = system: SK-MEL-2
# M14 = system: M14
# MDA-MB-231 = system: MDA-MB-231
# CAKI-1 = system: CAKI-1
# HCT-116 = system: HCT-116
# MDA-N = system: MDA-N
# IGROV-1 = system: IGROV-1
# SF-539 = system: SF-539
# DU-145 = system: DU-145
# SN12C = system: SN12C
# HOP-62 = system: HOP-62
# SF-268 = system: SF-268
# OVCAR-8 = system: OVCAR-8
# COLO 205 = system: COLO 205
# EKVX = system: EKVX
# NCI-H226 = system: NCI-H226
# Malme-3M = system: Malme-3M
# SF-295 = system: SF-295
# LOX IMVI = system: LOX IMVI
# TK-10 = system: TK-10
Structure (SMILES),GI50 (SK-MEL-2),GI50 (M14),GI50 (MDA-MB-231),GI50 (CAKI-1),GI50 (HCT-116),GI50 (MDA-N),GI50 (IGROV-1),GI50 (SF-539),GI50 (DU-145),GI50 (SN12C),GI50 (HOP-62),GI50 (SF-268),GI50 (OVCAR-8),GI50 (COLO 205),GI50 (EKVX),GI50 (NCI-H226),GI50 (Malme-3M),GI50 (SF-295),GI50 (LOX IMVI),GI50 (TK-10)
[Se]=P(c1ccccc1)(c1ccccc1)c1ccc(C(c2ccccc2)=P(c2ccccc2)(c2ccccc2)c2ccccc2)cc1,0.957 µM (active),1.54 µM (inactive),0.661 µM (active),2.3 µM (inactive),0.6 µM (active),0.753 µM (active),0.773 µM (active),1.46 µM (inactive),1.24 µM (inactive),1.23 µM (inactive),1.13 µM (inactive),0.514 µM (active),0.764 µM (active),0.308 µM (active),1.89 µM (inactive),1.31 µM (inactive),0.499 µM (active),2.27 µM (inactive),0.807 µM (active),1.41 µM (inactive)
Cn1c(=O)n(CC(Br)CBr)c(=O)n(CC(Br)CBr)c1=O (stereo not given),46.1 µM (inactive),24.3 µM (inactive),33.7 µM (inactive),85.3 µM (inactive),25.9 µM (inactive),28.8 µM (inactive),39.9 µM (inactive),25.3 µM (inactive),71.3 µM (inactive),26 µM (inactive),> 100 µM (inactive),74.6 µM (inactive),58.7 µM (inactive),21 µM (inactive),25.2 µM (inactive),20.2 µM (inactive),> 100 µM (inactive),45 µM (inactive),18.4 µM (inactive),55.5 µM (inactive)
CCC(N)(C(=O)O)C(C)C (stereo not given),> 100 µM (inactive),> 100 µM (inactive),> 100 µM (inactive),> 100 µM (inactive),> 100 µM (inactive),> 100 µM (inactive),> 100 µM (inactive),> 100 µM (inactive),> 100 µM (inactive),> 100 µM (inactive),> 100 µM (inactive),> 100 µM (inactive),> 100 µM (inactive),> 100 µM (inactive),> 100 µM (inactive),> 100 µM (inactive),> 100 µM (inactive),> 100 µM (inactive),> 100 µM (inactive),> 100 µM (inactive)
COc1ccc2cc1Oc1ccc(cc1)C(Sc1ccccc1)CCOC(=O)CC2 (stereo not given),> 100 µM (inactive),> 100 µM (inactive),54 µM (inactive),> 100 µM (inactive),> 100 µM (inactive),> 100 µM (inactive),> 100 µM (inactive),> 100 µM (inactive),> 100 µM (inactive),> 100 µM (inactive),> 100 µM (inactive),> 100 µM (inactive),> 100 µM (inactive),> 100 µM (inactive),> 100 µM (inactive),> 100 µM (inactive),> 100 µM (inactive),> 100 µM (inactive),> 100 µM (inactive),> 100 µM (inactive)
COC(=O)CCC(=O)NC1=C(Nc2ccccc2)C(=O)c2ccccc2C1=O,5.57 µM (inactive),3.58 µM (inactive),9.66 µM (inactive),14.4 µM (inactive),9.71 µM (inactive),2.04 µM (inactive),11.5 µM (inactive),13 µM (inactive),10.8 µM (inactive),13.6 µM (inactive),17.8 µM (inactive),13.2 µM (inactive),11.4 µM (inactive),16.7 µM (inactive),16.6 µM (inactive),14.6 µM (inactive),2.55 µM (inactive),15.4 µM (inactive),4.34 µM (inactive),22.5 µM (inactive)
CC(C)(C)C(=O)OCC1CCC[N+]2(C)CCCCC12 (stereo not given),> 100 µM (inactive),> 100 µM (inactive),> 100 µM (inactive),> 100 µM (inactive),> 100 µM (inactive),> 100 µM (inactive),> 100 µM (inactive),> 100 µM (inactive),> 100 µM (inactive),> 100 µM (inactive),> 100 µM (inactive),> 100 µM (inactive),> 100 µM (inactive),> 100 µM (inactive),> 100 µM (inactive),> 100 µM (inactive),> 100 µM (inactive),> 100 µM (inactive),> 100 µM (inactive),> 100 µM (inactive)
c1ccc(P2c3ccccc3Nc3ccccc32)cc1,36 µM (inactive),66.2 µM (inactive),35.3 µM (inactive),23.5 µM (inactive),38.6 µM (inactive),91 µM (inactive),71 µM (inactive),59.8 µM (inactive),78 µM (inactive),41.1 µM (inactive),64.9 µM (inactive),71.6 µM (inactive),> 100 µM (inactive),32.7 µM (inactive),34 µM (inactive),99.5 µM (inactive),49.3 µM (inactive),59.7 µM (inactive),45.8 µM (inactive),> 100 µM (inactive)
